Reference: patent US5208227A, “Method, compositions, and compounds for modulating brain excitability” (priority 1991, dated 1993)
pIC50: −log10 of the molar value. Where two headings read alike, the source gives them in different places.

What was measured:
[1] = system: GBR complex ([35S]TBPS site); test: dissociation kinetics of [35S]TBPS in cortical P2 homogenates; type: binding, rat
Description: An assay was performed to determine the effect of pentobarbital on the dissociation kinetics of [^35 S]TBPS in rat cerebral cortical membranes. This assay was performed in accordance with the procedures outlined above. […] Dissociation of bound [^35 S]TBPS was initiated by 2 micromolar TBPS in all cases.

[2] = system: GABA/benzodiazepine receptor-chloride ionopore complex (GBR complex); test: modulation (inhibition) of [35S]TBPS binding; set-up: species or system rat (male Sprague-Dawley); MAXIMAL INHIBITION: unit not given here; conditions: for MAXIMAL INHIBITION: [35S]TBPS binding; for MAXIMAL INHIBITION / +5 μM GABA IC50 / CONTROL IC50 / pIC50: rat cerebral cortex; for +5 μM GABA IC50 / CONTROL IC50 / pIC50: inhibition of 2 nM [35S]TBPS binding
Description: These procedures were performed as follows:
In these FIGS, (.circle.) represents control without bicuculline; represents 0.5 micromolar bicuculline; (.quadrature.) represents 1.0 micromolar bicuculline; represents 2.0 micromolar bicuculline; and (Δ) represents 3.0 micromolar bicuculline.

[3] = system: maximal electroshock (tonic component) in mice; set-up: unit not given here; conditions: literature data; cited from earlier work
[4] = system: picrotoxin-induced convulsions in mice; set-up: key: NP: no protection; conditions: cited from earlier work
[5] = system: metrazol-induced convulsions in mice; set-up: key: NP: no protection; conditions: cited from earlier work
[6] = system: strychnine-induced convulsions in mice; set-up: key to STR (strychnine) ED50: NP: no protection; conditions: cited from earlier work
mice [7] = system: mice; set-up: unit not given beside the values; conditions: literature data; cited from earlier work
[8] = system: (+)bicuculline-induced seizures in mice; set-up: key: NP: no protection; conditions: cited from earlier work
progesterone receptor = biological target: T1, progesterone receptor (Rattus norvegicus, UniProt Q63449); test: [3H]R5020 binding to the progesterone receptor in rat uterus; conditions: FIG. 5
T1 sequence (Q63449 1-923): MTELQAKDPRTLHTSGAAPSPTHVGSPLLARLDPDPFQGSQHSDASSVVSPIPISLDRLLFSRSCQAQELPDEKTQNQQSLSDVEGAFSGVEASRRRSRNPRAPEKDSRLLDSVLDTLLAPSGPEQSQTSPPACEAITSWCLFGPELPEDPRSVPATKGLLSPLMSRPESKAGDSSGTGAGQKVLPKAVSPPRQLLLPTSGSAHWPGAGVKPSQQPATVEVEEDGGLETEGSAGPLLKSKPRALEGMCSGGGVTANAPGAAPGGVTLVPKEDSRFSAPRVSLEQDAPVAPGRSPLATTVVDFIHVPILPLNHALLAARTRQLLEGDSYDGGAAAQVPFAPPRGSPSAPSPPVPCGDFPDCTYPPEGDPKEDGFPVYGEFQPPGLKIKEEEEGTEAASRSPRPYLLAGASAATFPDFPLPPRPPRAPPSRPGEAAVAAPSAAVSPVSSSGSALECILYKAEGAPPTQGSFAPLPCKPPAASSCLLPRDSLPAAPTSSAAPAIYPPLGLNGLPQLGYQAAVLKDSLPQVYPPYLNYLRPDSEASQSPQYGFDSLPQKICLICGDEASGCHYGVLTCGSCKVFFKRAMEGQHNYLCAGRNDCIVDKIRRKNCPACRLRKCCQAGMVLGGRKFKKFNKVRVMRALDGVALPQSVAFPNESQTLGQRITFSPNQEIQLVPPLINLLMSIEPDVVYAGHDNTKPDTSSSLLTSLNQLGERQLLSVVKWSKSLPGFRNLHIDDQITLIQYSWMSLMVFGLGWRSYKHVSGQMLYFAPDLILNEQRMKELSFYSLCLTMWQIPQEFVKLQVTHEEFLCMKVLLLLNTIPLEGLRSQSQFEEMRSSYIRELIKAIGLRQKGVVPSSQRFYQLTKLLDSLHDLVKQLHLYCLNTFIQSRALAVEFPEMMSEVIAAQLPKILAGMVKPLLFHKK
Text: The data plotted in FIG. 5 were obtained by performing assays in accordance with the procedures outlined above to determine the effect of progesterone metabolites and the progestin R5020 on the binding of [^3 H]R5020 to the progesterone receptor in rat uterus. All points on the plot of FIG. 5 represent the mean of triplicate determinations. The following compounds are those listed in FIG. 5: 5-alpha-pregnan-3-alpha-ol-20-one (DHP), 5-alpha-pregnan-3-alpha,21-diol-20-one (Th-DOC), and 5-beta-pregnane-3-alpha,20 diol (5 BETA).

[9] = system: premenstrual syndrome (PMS), PND, catamenial epilepsy patients; conditions: cited from earlier work
mice [10] = conditions: literature data; cited from earlier work
[11] = read-out: +5 μM GABA IC50, +5 μM GABA
[12] = no added GABA (control), read-out: CONTROL IC50
[13] = chemical convulsant administered i.v., Worms et al.

CCCC(C)C1(CC)C(=O)NC(=O)NC1=O (stereo not drawn) [Na pentobarbital]
Total percentage of specific sites, rapidly dissociating (R) ([1]; (**P < 0.01 vs control), alphaxalone 300 nM, 3a-OH-DHP 20 nM): 48 ± 6 percentage
Total percentage of specific sites, slowly dissociating (S) ([1]; (*P < 0.05 vs control), alphaxalone 300 nM, 3a-OH-DHP 20 nM): 61 ± 6 percentage
k-1, rapidly dissociating component (R) ([1]; [35S]TBPS dissociation, alphaxalone 300 nM, 3a-OH-DHP 20 nM): 0.158 min⁻¹
k-1, slowly dissociating component (S) ([1]; [35S]TBPS dissociation, pentobarbital 30 nM [sic], alphaxalone 300 nM, 3a-OH-DHP 20 nM): 0.0186 min⁻¹
effect on dissociation mechanism/kinetics of [35S]TBPS (in words) ([1]; pentobarbital 30 micromolar, alphaxalone 300 nanomolar, 5-alpha-pregnan-3-alpha-hydroxy-20-one 20 nanomolar): induces a biphasic dissociation mechanism

C[C@]12CC[C@@H]3c4ccc(O)cc4CC[C@H]3[C@@H]1CC[C@@H]2O [17β-ESTRADIOL]
MAXIMAL INHIBITION [2]: 0
+5 μM GABA IC50 ([2]; +5 μM GABA): INACTIVE
CONTROL IC50 ([2]; no added GABA (control)): INACTIVE

CCCC(CCC)C(=O)O [Valproate]
MES (maximal electroshock) ED50 [3]: 272
PICRO (picrotoxin) ED50 ([4]; Swinyard & Woodhead): 387
MTZ (metrazol) ED50 ([5]; Swinyard & Woodhead): 149
STR (strychnine) ED50 ([6]; Swinyard & Woodhead): 293
LD50 (mice [7]): 1105
BIC (bicuculline) ED50 ([8]; Swinyard & Woodhead): 360

CC(=O)[C@H]1CC[C@H]2[C@@H]3CC[C@H]4C[C@@H](O)CC[C@]4(C)[C@H]3CC[C@]12C [5α-PREGNAN-3β-OL- 20-ONE]
MAXIMAL INHIBITION [2]: 33
CONTROL IC50 ([2]; no added GABA (control)): INACTIVE
pIC50 [2, 11]: < 4.00

C[C@]12C[C@H](O)[C@H]3[C@@H](CCC4=CC(=O)CC[C@@]43C)[C@@H]1CC[C@@H]2C(=O)CO [4-PREGNEN-11β,21- DIOL-3,20-DIONE]
MAXIMAL INHIBITION [2]: 21
CONTROL IC50 ([2]; no added GABA (control)): INACTIVE
pIC50 [2, 11]: < 4.00

CC(O)[C@H]1CC[C@H]2[C@@H]3CC[C@@H]4C[C@H](O)CC[C@]4(C)[C@H]3CC[C@]12C (stereo partly drawn) [5-beta-pregnane-3-alpha,20 diol (5 BETA), 5-beta-pregnane-3-alpha,20 diol]
affinity for the progesterone receptor (progesterone receptor): lack of affinity

C[C@]12CC[C@@H](O)C[C@@H]1CC[C@H]1[C@@H]3CC[C@H](C(=O)CO)[C@@]3(C)CC(=O)[C@@H]12 [5α-PREGNAN-3α-21- DIOL-11,20-DIONE]
pIC50 [2, 12]: < 4.00

CC(=O)[C@H]1CC[C@H]2[C@@H]3CCC4=CC(=O)CC[C@]4(C)[C@H]3CC[C@]12C [PROGESTERONE]
MAXIMAL INHIBITION [2]: 100
potency/efficacy/affinity at the GBR complex (in words) ([2]; in vitro): very low potency
pIC50 [2, 12]: < 4.00
dose-response relationship in the treatment of PMS ([9]; Maddocks et al.): no dose-response relationship exists
clinical effectiveness in PMS, PND, catamenial epilepsy ([9]; literature): not consistently effective

C[C@]12CCC(=O)C[C@@H]1CC[C@@H]1[C@@H]2CC[C@]2(C)[C@@H](O)CC[C@@H]12 [5α-ANDROSTAN-17β- OL-3-ONE]
MAXIMAL INHIBITION [2]: 52
pIC50 [2, 12]: < 4.00

CCC1(c2ccccc2)C(=O)NC(=O)NC1=O [Phenobarbital]
MES (maximal electroshock) ED50 [3]: 22
PICRO (picrotoxin) ED50 ([4]; Swinyard & Woodhead): 28
Rotorod (RR) ED50 (mice [10]): 69
MTZ (metrazol) ED50 ([5]; Swinyard & Woodhead): 13
STR (strychnine) ED50 ([6]; Swinyard & Woodhead): 95
LD50 (mice [7]): 265
BIC (bicuculline) ED50 ([8]; Swinyard & Woodhead): 38

C[C@]12CC[C@@H](O)C[C@@H]1CC[C@@H]1[C@@H]2CC[C@]2(C)[C@@H](O)CC[C@@H]12 [5α-ANDROSTAN-3α, 17β-DIOL]
MAXIMAL INHIBITION [2]: 100

O=C1NC(=O)C(c2ccccc2)(c2ccccc2)N1 [Phenytoin]
PICRO (picrotoxin) ED50 ([4]; Swinyard & Woodhead): NP
MTZ (metrazol) ED50 ([5]; Swinyard & Woodhead): NP
Maximum protection (strychnine) ([6]; at 55-100 mg/kg): 50%
LD50 (mice [7]): 230
BIC (bicuculline) ED50 ([8]; Swinyard & Woodhead): NP

CC(=O)[C@H]1CC[C@H]2[C@@H]3CC=C4C[C@@H](O)CC[C@]4(C)[C@H]3CC[C@]12C [5-PREGNAN-3β-OL- 20-ONE (PREGNENOLONE), 5-PREGNAN-3β-OL- 20-ONE]
MAXIMAL INHIBITION [2]: 30
CONTROL IC50 ([2]; no added GABA (control)): INACTIVE
pIC50 [2, 11]: < 4.00

CC(C)CCC[C@@H](C)[C@H]1CC[C@H]2[C@@H]3CC=C4C[C@@H](O)CC[C@]4(C)[C@H]3CC[C@]12C [CHOLESTEROL]
MAXIMAL INHIBITION [2]: 0
+5 μM GABA IC50 ([2]; +5 μM GABA): INACTIVE
CONTROL IC50 ([2]; no added GABA (control)): INACTIVE

C[C@]12CC[C@@H](O)C[C@@H]1CC[C@@H]1[C@@H]2CC[C@]2(C)[C@@H](C(=O)CO)CC[C@@H]12 [5-alpha-pregnan-3-alpha,21-diol-20-one]
affinity for the progesterone receptor (progesterone receptor): lack of affinity

NCCCC(=O)O [GABA, gamma-aminobutyric acid]
shift in dose-response curve for [35S]TBPS binding induced by (+)-bicuculline ([2]; (+)-bicuculline 0.5-3.0 micromolar, FIGS. 1A and 1B): classical parallel shift

CC(O)[C@H]1CC[C@H]2[C@@H]3CC[C@H]4C[C@H](O)CC[C@]4(C)[C@H]3CC[C@]12C (stereo partly drawn) [5α-PREGNAN-3α,20- DIOL ([…]), 5α-PREGNAN-3α,20- DIOL]
MAXIMAL INHIBITION [2]: 52
pIC50 [2, 12]: 6.44
pIC50 [2, 11]: 7.09

NC(=O)CCC/N=C(\c1ccc(Cl)cc1)c1cc(F)ccc1O [Progabide]
MES (maximal electroshock) ED50 [3]: 75
PICRO (picrotoxin) ED50 [4, 13]: 105
MTZ (metrazol) ED50 [5, 13]: 30
STR (strychnine) ED50 [6, 13]: 75
LD50 (mice [7]): 3000
BIC (bicuculline) ED50 [8, 13]: 30

O=C1CN=C(c2ccccc2Cl)c2cc([N+](=O)[O-])ccc2N1 [Clonazepam]
MES (maximal electroshock) ED50 [3]: 93
PICRO (picrotoxin) ED50 ([4]; Swinyard & Woodhead): 0.043
Rotorod (RR) ED50 (mice [10]): 0.184
MTZ (metrazol) ED50 ([5]; Swinyard & Woodhead): 0.009
STR (strychnine) ED50 ([6]; Swinyard & Woodhead): NP
LD50 (mice [7]): > 6000
BIC (bicuculline) ED50 ([8]; Swinyard & Woodhead): 0.0086
